Assay results reported in patent US4032625A, “Bone-seeking technetium-99m complex” (priority 1975, dated 1977).
Where two headings read alike, the source gives them in different places.

Conditions: 2 Hrs

[85Sr] [^85 Sr]
% Dose in Whole Organ: Blood (0.01 mg/kg AEDP): 2.99 % Dose
% Dose in Whole Organ: Kidneys (0.01 mg/kg AEDP): 0.329 % Dose
% Dose in Whole Organ: Liver (0.01 mg/kg AEDP): 0.568 % Dose
% Dose in Whole Organ: Marrow (0.01 mg/kg AEDP): 0.465 % Dose
% Dose in Whole Organ: Muscle (0.01 mg/kg AEDP): 4.98 % Dose
% Dose in Whole Organ: W. Femur (0.01 mg/kg AEDP): 3.22 % Dose
% Dose in Whole Organ: W. Tibia (0.01 mg/kg AEDP): 2.71 % Dose
% Dose/1% Body weight: Blood (0.01 mg/kg AEDP): 0.427 % Dose/1% Body weight
% Dose/1% Body weight: Bone Ave (0.01 mg/kg AEDP): 10.33 % Dose/1% Body weight
% Dose/1% Body weight: Femur (0.01 mg/kg AEDP): 10.38 % Dose/1% Body weight
% Dose/1% Body weight: Kidneys (0.01 mg/kg AEDP): 0.567 % Dose/1% Body weight
% Dose/1% Body weight: Liver (0.01 mg/kg AEDP): 0.177 % Dose/1% Body weight
% Dose/1% Body weight: Marrow (0.01 mg/kg AEDP): 0.211 % Dose/1% Body weight
% Dose/1% Body weight: Muscle (0.01 mg/kg AEDP): 0.116 % Dose/1% Body weight
% Dose/1% Body weight: Pelvis (0.01 mg/kg AEDP): 10.66 % Dose/1% Body weight
% Dose/1% Body weight: Spine (0.01 mg/kg AEDP): 8.98 % Dose/1% Body weight
% Dose/1% Body weight: Tibia (0.01 mg/kg AEDP): 11.28 % Dose/1% Body weight
% Dose: Urine (0.01 mg/kg AEDP): 20.97 % Dose
% Dose in Whole Organ: Blood (0.01 mg/kg EHDP): 3.19 % Dose
% Dose in Whole Organ: Kidneys (0.01 mg/kg EHDP): 0.43 % Dose
% Dose in Whole Organ: Liver (0.01 mg/kg EHDP): 0.74 % Dose
% Dose in Whole Organ: Marrow (0.01 mg/kg EHDP): 0.42 % Dose
% Dose in Whole Organ: One Femur (0.01 mg/kg EHDP): 2.83 % Dose
% Dose/1%-body weight: Blood (0.01 mg/kg EHDP): 0.456 % Dose/1%-body weight
% Dose/1%-body weight: Femur (0.01 mg/kg EHDP): 9.70 % Dose/1%-body weight
% Dose/1%-body weight: Kidney (0.01 mg/kg EHDP): 0.655 % Dose/1%-body weight
% Dose/1%-body weight: Liver (0.01 mg/kg EHDP): 0.206 % Dose/1%-body weight
% Dose/1%-body weight: Marrow (0.01 mg/kg EHDP): 0.192 % Dose/1%-body weight
% Dose: Urine (0.01 mg/kg EHDP): 23.66 % Dose
% Dose in Whole Organ: Blood (0.01 mg/kg MDP): 3.27 % Dose
% Dose in Whole Organ: Kidneys (0.01 mg/kg MDP): 0.34 % Dose
% Dose in Whole Organ: Liver (0.01 mg/kg MDP): 0.65 % Dose
% Dose in Whole Organ: Marrow (0.01 mg/kg MDP): 0.53 % Dose
% Dose in Whole Organ: Muscle (0.01 mg/kg MDP): 5.69 % Dose
% Dose in Whole Organ: One Femur (0.01 mg/kg MDP): 3.46 % Dose
% Dose/1% Body weight: Blood (0.01 mg/kg MDP): 0.47 % Dose/1% body weight
% Dose/1% Body weight: Femur (0.01 mg/kg MDP): 13.93 % Dose/1% body weight
% Dose/1% Body weight: Kidneys (0.01 mg/kg MDP): 0.54 % Dose/1% body weight
% Dose/1% Body weight: Liver (0.01 mg/kg MDP): 0.16 % Dose/1% body weight
% Dose/1% Body weight: Marrow (0.01 mg/kg MDP): 0.24 % Dose/1% body weight
% Dose/1% Body weight: Muscle (0.01 mg/kg MDP): 0.13 % Dose/1% body weight
% Dose/1% Body weight: Pelvis (0.01 mg/kg MDP): 13.55 % Dose/1% body weight
% Dose/1% Body weight: Spine (0.01 mg/kg MDP): 12.78 % Dose/1% body weight
% Dose/1% Body weight: Tibia (0.01 mg/kg MDP): 7.14 % Dose/1% body weight
% Dose/1% body weight: Ave Bone (0.01 mg/kg MDP): 11.85 % Dose/1% body weight
% Dose: Urine (0.01 mg/kg MDP): 10.3 % Dose
% Dose in Whole Organ: Blood (0.05 mg/kg AEDP): 2.50 % Dose
% Dose in Whole Organ: Kidneys (0.05 mg/kg AEDP): 0.353 % Dose
% Dose in Whole Organ: Liver (0.05 mg/kg AEDP): 0.613 % Dose
% Dose in Whole Organ: Marrow (0.05 mg/kg AEDP): 0.486 % Dose
% Dose in Whole Organ: Muscle (0.05 mg/kg AEDP): 5.09 % Dose
% Dose in Whole Organ: W. Femur (0.05 mg/kg AEDP): 3.51 % Dose
% Dose in Whole Organ: W. Tibia (0.05 mg/kg AEDP): 3.15 % Dose
% Dose/1% Body weight: Blood (0.05 mg/kg AEDP): 0.357 % Dose/1% Body weight
% Dose/1% Body weight: Bone Ave (0.05 mg/kg AEDP): 12.34 % Dose/1% Body weight
% Dose/1% Body weight: Femur (0.05 mg/kg AEDP): 12.62 % Dose/1% Body weight
% Dose/1% Body weight: Kidneys (0.05 mg/kg AEDP): 0.551 % Dose/1% Body weight
% Dose/1% Body weight: Liver (0.05 mg/kg AEDP): 0.134 % Dose/1% Body weight
% Dose/1% Body weight: Marrow (0.05 mg/kg AEDP): 0.221 % Dose/1% Body weight
% Dose/1% Body weight: Muscle (0.05 mg/kg AEDP): 0.118 % Dose/1% Body weight
% Dose/1% Body weight: Pelvis (0.05 mg/kg AEDP): 11.44 % Dose/1% Body weight
% Dose/1% Body weight: Spine (0.05 mg/kg AEDP): 11.60 % Dose/1% Body weight
% Dose/1% Body weight: Tibia (0.05 mg/kg AEDP): 13.69 % Dose/1% Body weight
% Dose: Urine (0.05 mg/kg AEDP): 11.95 % Dose
% Dose in Whole Organ: Blood (0.05 mg/kg EHDP): 3.39 % Dose
% Dose in Whole Organ: Kidneys (0.05 mg/kg EHDP): 0.46 % Dose
% Dose in Whole Organ: Liver (0.05 mg/kg EHDP): 0.77 % Dose
% Dose in Whole Organ: Marrow (0.05 mg/kg EHDP): 0.61 % Dose
% Dose in Whole Organ: One Femur (0.05 mg/kg EHDP): 3.33 % Dose
% Dose/1%-body weight: Blood (0.05 mg/kg EHDP): 0.485 % Dose/1%-body weight
% Dose/1%-body weight: Femur (0.05 mg/kg EHDP): 11.51 % Dose/1%-body weight
% Dose/1%-body weight: Kidney (0.05 mg/kg EHDP): 0.616 % Dose/1%-body weight
% Dose/1%-body weight: Liver (0.05 mg/kg EHDP): 0.210 % Dose/1%-body weight
% Dose/1%-body weight: Marrow (0.05 mg/kg EHDP): 0.291 % Dose/1%-body weight
% Dose: Urine (0.05 mg/kg EHDP): 13.4 % Dose
% Dose in Whole Organ: Blood (0.05 mg/kg MDP): 3.66 % Dose
% Dose in Whole Organ: Kidneys (0.05 mg/kg MDP): 0.46 % Dose
% Dose in Whole Organ: Liver (0.05 mg/kg MDP): 0.71 % Dose
% Dose in Whole Organ: Marrow (0.05 mg/kg MDP): 0.53 % Dose
% Dose in Whole Organ: Muscle (0.05 mg/kg MDP): 5.89 % Dose
% Dose in Whole Organ: One Femur (0.05 mg/kg MDP): 2.53 % Dose
% Dose/1% Body weight: Blood (0.05 mg/kg MDP): 0.52 % Dose/1% body weight
% Dose/1% Body weight: Femur (0.05 mg/kg MDP): 9.10 % Dose/1% body weight
% Dose/1% Body weight: Kidneys (0.05 mg/kg MDP): 0.9 % Dose/1% body weight
% Dose/1% Body weight: Liver (0.05 mg/kg MDP): 0.22 % Dose/1% body weight
% Dose/1% Body weight: Marrow (0.05 mg/kg MDP): 0.24 % Dose/1% body weight
% Dose/1% Body weight: Muscle (0.05 mg/kg MDP): 0.14 % Dose/1% body weight
% Dose/1% Body weight: Pelvis (0.05 mg/kg MDP): 8.33 % Dose/1% body weight
% Dose/1% Body weight: Spine (0.05 mg/kg MDP): 6.75 % Dose/1% body weight
% Dose/1% Body weight: Tibia (0.05 mg/kg MDP): 4.94 % Dose/1% body weight
% Dose/1% body weight: Ave Bone (0.05 mg/kg MDP): 7.29 % Dose/1% body weight
% Dose: Urine (0.05 mg/kg MDP): 23.16 % Dose
